Data: patent US10280179B2, “Spiroquinoxaline derivatives as inhibitors of non-apoptotic regulated cell-death” (Helmholtz Zentrum Munchen—Deutches Forschungszentrum Fur …, priority 2013, dated 2019)

Columns and labels:
Assay type in all cases: cell-based
[1] = Cellular toxicity, same assay as Example B.4 without TAM (Example B.5); conditions: mouse; Pfa1 cells without TAM; read-out: TC50 (the source's name)
From the text: Cellular Toxicity of Compounds of the Invention
An estimate of the toxicity for compounds of the invention was obtained by using the same assay as described in Example B.4, but without the addition of TAM. […] Such TC50 values obtained for certain compounds disclosed herein, together with an approximate therapeutic window (estimated by dividing each TC50 by the corresponding IC50 determined from example B.4) are shown in Table 3.

Pfa1 cells = experiment: Inhibition of non-apoptotic cell death after tamoxifen-induced GPx4 knockout in a recombinant cell line (Example B.4); conditions: Mus musculus, read-out: Pfa1/TAM IC50
From the text: Inhibition of Non-Apoptotic Cell-Death by Compounds Disclosed Herein Using a Recombinant Cell Line
To combat high intracellular ROS levels, mammalian cells have evolved an intricate network of ROS scavenging in cells, in which the thioredoxin and glutathione (GSH) dependent systems prevail. […] Knockout of GPx4 in neurons causes massive neurodegeneration in cortical, cerebellar and hippocampal neurons underscoring the high relevance of ROS-induced cell death signaling in the brain. Briefly, immortalised fibroblasts from these mice were made to contain tamoxifen-inducible CreERT2, which catalyzes the functional ablation of both copies of GPx4 and resulting in a complete knockout of GPx4, a massive ROS burst, and cell death in cell culture. These cells (Pfa1 cells) were used to characterize compounds of the present invention, whereby tamoxifen (TAM) was given on day 0 along with the compound under test, and 72 hours later cell survival was evaluated using AlamarBlue.

[2] = system: mouse hippocampal cell line (Ht22); experiment: Inhibition of glutamate-induced non-apoptotic cell death (Example B.2); conditions: HT-22, Ht22 cells, glutamate-induced cell death, read-out: Ht22/GLU
From the text: Inhibition of Glutamate-Induced Non-Apoptotic Cell Death by Compounds of the Present Invention
Glutamate toxicity is conferred on cells from the mouse hippocampal cell line (Ht22) by inhibition of the cysteine/glutamate antiporter, System xc-, leading to impaired cysteine uptake and subsequent GSH depletion. This model is frequently used for mimicking glutathione depletion following oxidative stress in stroke, brain trauma and other neurodegenerative diseases and cellular conditions following ischemia (for example: van Leyen et al, J. Neurochem. 92:824-30 (2005)).
Compounds disclosed herein were evaluated for their ability to promote cell survival upon administration of a lethal dose of glutamate (GLU) to the cell-culture medium.
Briefly, Ht22 cells (ATCC) were propagated DMEM supplemented with 10% FBS/1% Penicillin-Streptomycin, and then seeded onto 96-well plates at a concentration of 2,000 cells/well in 100 μL of MEDIA, simultaneously with glutamate (Sigma Aldrich) to a final concentration of 5 mM, together with increasing concentrations of the compound to be tested (0.5 pM to 100 μM), and the plates incubated at 37° C./5% CO2 for 72 hours. Compound dilutions were prepared from 10 mM stocks dissolved in DMSO and diluted in media. Cells treated with glutamate alone were used as negative control and alpha-tocopherol (Sigma Aldrich) was used as positive control. Compound concentrations were tested in triplicate. After incubation, cell survival was detected and quantified as described in Example B.1.

Row | SMILES | CC50 [1] [µM] | IC50 (Pfa1 cells) [µM] | IC50 [2] [µM]
1 | Clc1ccc(CNC2=Nc3ccccc3NC23CCCCC3)cc1 [C-3] | 20 to 50 | < 0.2 | < 0.5
2 | Fc1cccc(CNC2=Nc3ccccc3NC23CCCCC3)c1 [C-5] | 20 to 50 | < 0.5 | < 5
3 | Cc1cccc(CNC2=Nc3ccccc3NC23CCCCC3)c1 [C-11] | 10 to 20 | < 0.5 | < 1
4 | FC(F)(F)c1cccc(CNC2=Nc3ccccc3NC23CCCCC3)c1 [C-23] | 10 to 20 | < 0.05 | < 0.5
5 | COc1cccc(CNC2=Nc3ccccc3NC23CCCCC3)c1 [C-47] | 20 to 50 | < 0.5 | < 1
6 | Fc1cc(Cl)ccc1CNC1=Nc2ccccc2NC12CCCCC2 [C-61] | 20 to 50 | < 0.2 | < 0.5
7 | Clc1cccc(CCNC2=Nc3ccccc3NC23CCCCC3)c1 [C-79] | 2 to 5 | < 0.5 | < 0.5
8 | Cc1cc2c(cc1C)NC1(CCCCC1)C(NCc1ccccc1)=N2 [C-218] | 20 to 50 | < 0.1 | < 0.1
9 | c1ccc(CNC2=Nc3ccccc3NC23CCCC3)cc1 [C-219] | 20 to 50 | < 2 | < 5
10 | Clc1ccc(CNC2=Nc3ccccc3NC23CCCCCC3)cc1 [C-220] | 10 to 20 | < 0.2 | < 0.5
11 | c1ccc(CCCNC2=Nc3ccccc3NC23CCCCC3)cc1 [C-221] | 5 to 10 | < 1 | < 1
12 | Fc1cccc(F)c1CNC1=Nc2ccccc2NC12CCCCC2 [C-222] | 20 to 50 | < 0.2 | < 1
13 | COc1cccc(CNC2=Nc3ccccc3NC23CCCCCC3)c1 [C-224] | 20 to 50 | < 0.5 | < 1
14 | Cc1cc(C)cc(CNC2=Nc3ccccc3NC23CCCCC3)c1 [C-225] | 10 to 20 | < 0.5 | < 0.5
15 | c1ccc(CCNC2=Nc3ccccc3NC23CCCCC3)cc1 [C-226] | 10 to 20 | < 1 | < 2
16 | c1ccc(C(CNC2=Nc3ccccc3NC23CCCCC3)c2ccccc2)cc1 [C-229] | 2 to 5 | < 0.2 | < 1
17 | Clc1ccc(CNC2=Nc3ccccc3NC23CCCCC3)c(Cl)c1 [C-230] | 20 to 50 | < 0.1 | < 0.5
18 | Fc1ccc(CNC2=Nc3ccccc3NC23CCCCC3)c(F)c1 [C-231] | 20 to 50 | < 0.5 | < 1
19 | c1ccc(CCCCNC2=Nc3ccccc3NC23CCCCC3)cc1 [C-232] | 20 to 50 | < 2 | < 1

Row | SMILES | CC50 [1] [µM] | IC50 (Pfa1 cells) [µM] | IC50 [2] [µM]
20 | CC(CCc1ccccc1)NC1=Nc2ccccc2NC12CCCCC2 (centres unmarked) [C-233] | 20 to 50 | < 1 | < 1
21 | Clc1cccc(CNC2=Nc3cc(Cl)c(Cl)cc3NC23CCCCCC3)c1 [C-234] | 20 to 50 | < 0.5 | < 0.5
22 | Clc1cc2c(cc1Cl)NC1(CCCCCC1)C(NCc1ccccc1)=N2 [C-235] | 10 to 20 | < 0.2 | < 0.5
23 | c1ccc(CNC2=Nc3ccccc3NC23CCCCCCC3)cc1 [C-236] | 10 to 20 | < 0.5 | < 0.5
24 | Clc1cc2c(cc1Cl)NC1(CCCCCCC1)C(NCc1ccccc1)=N2 [C-237] | 10 to 20 | < 0.5 | < 0.5
25 | Fc1cc2c(cc1F)NC1(CCCCC1)C(NCc1ccccc1)=N2 [C-238] | 20 to 50 | < 0.5 | < 0.2
26 | Cc1cc2c(cc1C)NC1(CCCCCC1)C(NCc1ccccc1)=N2 [C-239] | 10 to 20 | < 0.2 | < 0.2
27 | Fc1cccc(F)c1CNC1=Nc2cc(Cl)c(Cl)cc2NC12CCCCC2 [C-240] | 5 to 10 | < 0.5 | < 0.2
28 | Cc1cc2c(cc1C)NC1(CCCCCCC1)C(NCc1ccccc1)=N2 [C-241] | 5 to 10 | < 0.5 | < 0.2
29 | Fc1ccc(CNC2=Nc3ccccc3NC23CCCCCC3)c(F)c1 [C-242] | 10 to 20 | < 1 | < 1
30 | Clc1cc2c(cc1Cl)NC1(CCCCCC1)C(NCc1ccccc1Cl)=N2 [C-243] | 10 to 20 | < 0.5 | < 1
31 | CC(NC1=Nc2ccccc2NC12CCCCC2)c1ccccc1 (centres unmarked) [C-244] | 10 to 20 | < 1 | < 1
32 | Cc1cccc(CNC2=Nc3cc(Cl)c(Cl)cc3NC23CCCCC3)c1 [C-268] | 10 to 20 | < 0.1 | < 0.5
33 | CC(C)(C)c1ccc(CNC2=Nc3ccccc3NC23CCCCC3)cc1 [C-269] | 5 to 10 | < 0.2 | < 0.5
34 | Fc1cccc(CNC2=Nc3ccccc3NC23CCNCC3)c1 [N-5] | 5 to 10 | < 0.1 | < 0.05
35 | COc1cccc(CNC2=Nc3ccccc3NC23CCNCC3)c1 [N-14] | 20 to 50 | < 0.5 | < 0.2
36 | Clc1ccc(CNC2=Nc3ccccc3NC23CCNCC3)c(Cl)c1 [N-56] | 1 to 2 | < 0.01 | < 0.05
37 | Clc1cccc(CCNC2=Nc3ccccc3NC23CCNCC3)c1 [N-79] | 2 to 5 | < 0.1 | < 0.05
38 | Cc1cc2c(cc1C)NC1(CCNCC1)C(NCc1cccc(Cl)c1)=N2 [N-111] | 1 to 2 | < 0.01 | < 0.01

Row | SMILES | CC50 [1] [µM] | IC50 (Pfa1 cells) [µM] | IC50 [2] [µM]
39 | Clc1cccc(CNC2=Nc3cc(Cl)c(Cl)cc3NC23CCNCC3)c1 [N-115] | 0.2 to 0.5 | < 0.01 | < 0.05
40 | c1ccc(CNC2=Nc3ccccc3NC23CCNCC3)cc1 [N-206] | 20 to 50 | < 0.2 | < 0.5
41 | Clc1cc2c(cc1Cl)NC1(CCNCC1)C(NCc1ccccc1Cl)=N2 [N-207] | 0.5 to 1 | < 0.01 | < 0.05
42 | Clc1ccc(CNC2=Nc3cc(Cl)c(Cl)cc3NC23CCNCC3)cc1 [N-208] | 0.5 to 1 | < 0.01 | < 0.05
43 | CN1CCC2(CC1)Nc1ccccc1N=C2NCc1ccccc1Cl [N-209] | 5 to 10 | < 0.1 | < 0.5
44 | Clc1ccc(CNC2=Nc3ccccc3NC23CCNCC3)cc1Cl [N-211] | 1 to 2 | < 0.01 | < 0.05
45 | c1ccc(CNC2=Nc3ccccc3NC23CCCNCC3)cc1 (centres unmarked) [N-212] | 10 to 20 | < 1 | < 1
46 | CN1CCC2(CC1)Nc1ccccc1N=C2NCc1ccc(Cl)cc1 [N-213] | 5 to 10 | < 0.1 | < 0.2
47 | Cc1cc2c(cc1C)NC1(CCNCC1)C(NCc1ccc(Cl)cc1)=N2 [N-214] | 1 to 2 | < 0.01 | < 0.05
48 | CN1CCC2(CC1)Nc1ccccc1N=C2NCc1cccc(C(F)(F)F)c1 [N-215] | 5 to 10 | < 0.05 | < 0.05
49 | CCCCCCCC(=O)N1CCC2(CC1)Nc1ccccc1N=C2NCc1ccccc1 [N-216] | 10 to 20 | < 0.5 | < 0.5
50 | CC(NC1=Nc2ccccc2NC12CCNCC2)c1ccccc1 (centres unmarked) [N-218] | 20 to 50 | < 0.5 | < 0.5
51 | Fc1ccc(CNC2=Nc3ccccc3NC23CCNCC3)c(F)c1 [N-221] | 20 to 50 | < 0.2 | < 0.2
52 | CC(CCc1ccccc1)NC1=Nc2ccccc2NC12CCNCC2 (centres unmarked) [N-222] | 20 to 50 | < 0.2 | < 0.05
53 | Cc1cccc(CNC2=Nc3cc(Cl)c(Cl)cc3NC23CCNCC3)c1 [N-224] | 1 to 2 | < 0.01 | < 0.05
54 | c1ccc(CCCCNC2=Nc3ccccc3NC23CCNCC3)cc1 [N-225] | 1 to 2 | < 0.05 | < 1
55 | c1ccc(CCNC2=Nc3ccccc3NC23CCNCC3)cc1 [N-226] | 10 to 20 | < 0.1 | < 0.1
56 | CC(C)(C)c1ccc(CNC2=Nc3ccccc3NC23CCNCC3)cc1 [N-227] | 0.5 to 1 | < 0.01 | < 0.01
57 | O=S1(=O)CCC2(CC1)Nc1cc(Cl)c(Cl)cc1N=C2NCc1ccccc1 [O/S-360] |  | < 2 | < 2
